Test results: patent publication US10392383B2, “3-(1H-benzo[d]imidazol-2-yl)-1H-pyrazolo[4,3-b]pyridines and therapeutic uses thereof” (Samumed, LLC, priority 2015, dated 2019)

Experiments:
Format in all cases: cell-based
[1] = tested on: Wnt activity (Sp5-Luc reporter, Wnt-responsive promoter) in SW480 colon carcinoma cells; test: Wnt activity screening assay: Sp5-Luc reporter gene assay in SW480 cells; conditions: Homo sapiens, overnight incubation, 10-point curve starting from 10 μM
Summary of the method: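 Wnt-driven firefly luciferase in SW480 colon carcinoma cells reports pathway activity after overnight compound exposure (10 μM top concentration, 3-fold steps). Signal is normalized to DMSO controls.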

[2] = tested on: SW480 colon cancer cells; test: Cell viability assay (CellTiter-Blue) in SW480 cells; conditions: Homo sapiens, 96 h, four days, CellTiter-Blue, 10 μM to 0.0045 μM
Summary of the method: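 Approximately 2×10^3 SW480 cells per well are seeded with compound (8 points, threefold steps, top 10 μM) and incubated four days at 37 °C. CellTiter-Blue is then added for about 3 h and fluorescence read. Non-linear regression gives EC50; for values beyond 10 μM, percent inhibition at that concentration is listed.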

[3] = tested on: primary human fibroblasts derived from IPF patients (LL29 cells) treated with TGF-β1; test: Inhibition of the fibrotic process: αSMA staining in TGF-β1-treated LL29 fibroblasts; conditions: Fibroblast; for EC50: 96 h, LL29 fibroblasts treated with TGF-β1 (20 ng/mL), 4 days, Table 4; for inhibition at 10 µM: LL29 fibroblasts treated with TGF-β1, Table 4, read-out: percent inhibition at 10 μM (given in parentheses for EC50 >10 μM)
Summary of the method: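 IPF-derived LL29 fibroblasts in F12 with 1% FBS dosed with compound (11-point, 10 μM to 1.87 nM, 0.1% DMSO), then 20 ng/mL TGF-β1 after 1 h, and cultured 4 days at 37 °C. αSMA-positive cell fraction imaged after excluding SYTOX-positive cells, normalized to TGF-β1/DMSO wells; EC50 by non-linear regression, % inhibition at 10 μM if EC50 >10 μM.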

| EC50 [1] [µM] | EC50 [2] [µM] | Structure (SMILES) | EC50 [3] [µM] | inhibition at 10 µM [3] [%] |
| --- | --- | --- | --- | --- |
| 1.34 | 5.59 | Cc1ccncc1-c1ccc2[nH]nc(-c3nc4c(-c5cc(F)cc(CNS(C)(=O)=O)c5)cccc4[nH]3)c2n1 [Compound 481, N-(3-Fluoro-5-(2-(5-(4-methylpyridin-3-yl)-1H-pyrazolo[4,3-b]pyridin-3-yl)-1H-benzo[d]imidazol-4-yl)benzyl)methanesulfonamide] | 2.11 |  |
| 3.22 | 3.93 | CCCC(=O)Nc1cncc(-c2ccc3[nH]nc(-c4nc5c(-c6cc(F)cc(CNS(C)(=O)=O)c6)cccc5[nH]4)c3n2)c1 [Compound 493, N-(5-(3-(4-(3-Fluoro-5-(methylsulfonamidomethyl)phenyl)-1H-benzo[d]imidazol-2-yl)-1H-pyrazolo[4,3-b]pyridin-5-yl)pyridin-3-yl)butyramide] | 2.62 |  |
| 2.34 | 3.1 | CS(=O)(=O)NCc1cc(F)cc(-c2cccc3[nH]c(-c4n[nH]c5ccc(-c6cncc(CNCc7ccccc7)c6)nc45)nc23)c1 [Compound 500, N-(3-(2-(5-(5-((Benzylamino)methyl)pyridin-3-yl)-1H-pyrazolo[4,3-b]pyridin-3-yl)-1H-benzo[d]imidazol-4-yl)-5-fluorobenzyl)methanesulfonamide] | 2.21 |  |
| 2.89 | 8.14 | CS(=O)(=O)NCc1cc(F)cc(-c2cccc3[nH]c(-c4n[nH]c5ccc(-c6cncnc6)nc45)nc23)c1 [Compound 503, N-(3-Fluoro-5-(2-(5-(pyrimidin-5-yl)-1H-pyrazolo[4,3-b]pyridin-3-yl)-1H-benzo[d]imidazol-4-yl)benzyl)methanesulfonamide] | 5 |  |
| 3.2 | 1.46 | Fc1cccc(-c2cccc3[nH]c(-c4n[nH]c5ccc(C6CCNCC6)nc45)nc23)c1 [Compound 505, 3-(4-(3-Fluorophenyl)-1H-benzo[d]imidazol-2-yl)-5-(piperidin-4-yl)-1H-pyrazolo[4,3-b]pyridine] | 1.7 |  |
| 0.518 | 1.12 | Cn1cc(-c2ccc3[nH]nc(-c4nc5c(-c6cccc(F)c6)cccc5[nH]4)c3n2)cn1 [Compound 508, 3-(4-(3-Fluorophenyl)-1H-benzo[d]imidazol-2-yl)-5-(1-methyl-1H-pyrazol-4-yl)-1H-pyrazolo[4,3-b]pyridine] | 1.11 |  |
| 0.16 | 0.414 | Cc1ncc(-c2ccc3[nH]nc(-c4nc5c(-c6cccc(F)c6)cccc5[nH]4)c3n2)n1C [Compound 509, 5-(1,2-Dimethyl-1H-imidazol-5-yl)-3-(4-(3-fluorophenyl)-1H-benzo[d]imidazol-2-yl)-1H-pyrazolo[4,3-b]pyridine] | 0.175 |  |
| 3.23 | 0.952 | NC1CN(c2cncc(-c3ccc4[nH]nc(-c5nc6c(-c7cccc(F)c7)cccc6[nH]5)c4n3)n2)C1 [Compound 510, 1-(6-(3-(4-(3-Fluorophenyl)-1H-benzo[d]imidazol-2-yl)-1H-pyrazolo[4,3-b]pyridin-5-yl)pyrazin-2-yl)azetidin-3-amine] | 4.32 |  |
| 2.14 | 2.27 | Fc1cccc(-c2cccc3[nH]c(-c4n[nH]c5ccc(-c6cncc(OC7CCNCC7)c6)nc45)nc23)c1 [Compound 512, 3-(4-(3-Fluorophenyl)-1H-benzo[d]imidazol-2-yl)-5-(5-(piperidin-4-yloxy)pyridin-3-yl)-1H-pyrazolo[4,3-b]pyridine] | 1.54 |  |
| 1.17 | 1.12 | Fc1cccc(-c2cccc3[nH]c(-c4n[nH]c5ccc(-c6cncc(OCCN7CCCC7)c6)nc45)nc23)c1 [Compound 514, 3-(4-(3-Fluorophenyl)-1H-benzo[d]imidazol-2-yl)-5-(5-(2-(pyrrolidin-1-yl)ethoxy)pyridin-3-yl)-1H-pyrazolo[4,3-b]pyridine] | 1.06 |  |
| 4.67 | 1.38 | CN(C)CCOc1cncc(-c2ccc3[nH]nc(-c4nc5c(-c6cccc(F)c6)cccc5[nH]4)c3n2)c1 [Compound 515, 2-((5-(3-(4-(3-Fluorophenyl)-1H-benzo[d]imidazol-2-yl)-1H-pyrazolo[4,3-b]pyridin-5-yl)pyridin-3-yl)oxy)-N,N-dimethylethan-1-amine] | 2.54 |  |
| 0.923 | 1.16 | COc1cncc(-c2ccc3[nH]nc(-c4nc5c(-c6cccc(F)c6)cccc5[nH]4)c3n2)c1 [Compound 516, 3-(4-(3-Fluorophenyl)-1H-benzo[d]imidazol-2-yl)-5-(5-methoxypyridin-3-yl)-1H-pyrazolo[4,3-b]pyridine] | > 10 | 0 |

Further lines, the compound ahead of its results:

| Structure (SMILES) | EC50 [1] [µM] | EC50 [2] [µM] | EC50 [3] [µM] | inhibition at 10 µM [3] [%] |
| --- | --- | --- | --- | --- |
| CN(C)c1cncc(-c2ccc3[nH]nc(-c4nc5c(-c6cccs6)cccc5[nH]4)c3n2)c1 [Compound 343, N,N-Dimethyl-5-(3-(4-(thiophen-2-yl)-1H-benzo[d]imidazol-2-yl)-1H-pyrazolo[4,3-b]pyridin-5-yl)pyridin-3-amine] | 1.72 | 2.36 | 1.18 |  |
| CN(C)Cc1cncc(-c2ccc3[nH]nc(-c4nc5c(-c6cccs6)cccc5[nH]4)c3n2)c1 [Compound 349, N,N-dimethyl-1-(5-(3-(4-(thiophen-2-yl)-1H-benzo[d]imidazol-2-yl)-1H-pyrazolo[4,3-b]pyridin-5-yl)pyridin-3-yl)methanamine] | 4.1 | 2.89 | 2.5 |  |
| c1csc(-c2cccc3[nH]c(-c4n[nH]c5ccc(-c6ccncc6)nc45)nc23)c1 [Compound 354, 5-(Pyridin-4-yl)-3-(4-(thiophen-2-yl)-1H-benzo[d]imidazol-2-yl)-1H-pyrazolo[4,3-b]pyridine] | 3.77 | 2.81 | > 10 | 31.2 |
| O=C(Nc1cncc(-c2ccc3[nH]nc(-c4nc5c(-c6cccs6)cccc5[nH]4)c3n2)c1)C1CC1 [Compound 356, N-(5-(3-(4-(Thiophen-2-yl)-1H-benzo[d]imidazol-2-yl)-1H-pyrazolo[4,3-b]pyridin-5-yl)pyridin-3-yl)cyclopropanecarboxamide] | 3.38 | 3.75 | > 10 | 0 |
| Cc1ccc(-c2cccc3[nH]c(-c4n[nH]c5ccc(-c6cncc(N)c6)nc45)nc23)s1 [Compound 395, 5-(3-(4-(5-Methylthiophen-2-yl)-1H-benzo[d]imidazol-2-yl)-1H-pyrazolo [4,3-b]pyridin-5-yl)pyridin-3-amine] | 0.078 | 0.32 | 0.186 |  |
| Cc1ccc(-c2cccc3[nH]c(-c4n[nH]c5ccc(-c6cncc(NC(=O)C(C)C)c6)nc45)nc23)s1 [Compound 401, N-(5-(3-(4-(5-Methylthiophen-2-yl)-1H-benzo[d]imidazol-2-yl)-1H-pyrazolo [4,3-b]pyridin-5-yl)pyridin-3-yl)isobutyramide] | 3.13 | 3.83 | 0.673 |  |
| CCNCc1cncc(-c2ccc3[nH]nc(-c4nc5c(-c6cc(F)cc(NCCN(C)C)c6)cccc5[nH]4)c3n2)c1 [Compound 454, N^1-(3-(2-(5-(5-((Ethylamino)methyl)pyridin-3-yl)-1H-pyrazolo[4,3-b]pyridin-3-yl)-1H-benzo[d]imidazol-4-yl)-5-fluorophenyl)-N^2,N^2-dimethylethane-1,2-diamine] | 3.37 | 1.48 | 2.4 |  |
| CC(C)Nc1cncc(-c2ccc3[nH]nc(-c4nc5c(-c6cc(F)cc(NCCN(C)C)c6)cccc5[nH]4)c3n2)c1 [Compound 460, N^1-(3-Fluoro-5-(2-(5-(5-(isopropylamino)pyridin-3-yl)-1H-pyrazolo[4,3-b]pyridin-3-yl)-1H-benzo[d]imidazol-4-yl)phenyl)-N^2,N^2-dimethylethane-1,2-diamine] | 1.05 | 0.508 | 1.44 |  |
| CCCCC(=O)Nc1cncc(-c2ccc3[nH]nc(-c4nc5c(-c6cc(F)cc(NCCN(C)C)c6)cccc5[nH]4)c3n2)c1 [Compound 467, N-(5-(3-(4-(3-((2-(Dimethylamino)ethyl)amino)-5-fluorophenyl)-1H-benzo [d]imidazol-2-yl)-1H-pyrazolo[4,3-b]pyridin-5-yl)pyridin-3-yl)pentanamide] | 1.3 | 1.1 | 1.18 |  |
| CN(C)CCNc1cc(F)cc(-c2cccc3[nH]c(-c4n[nH]c5ccc(-c6cncc(CNCC7CCCC7)c6)nc45)nc23)c1 [Compound 473, N^1-(3-(2-(5-(5-(((Cyclopentylmethyl)amino)methyl)pyridin-3-yl)-1H-pyrazolo[4,3-b]pyridin-3-yl)-1H-benzo[d]imidazol-4-yl)-5-fluorophenyl)-N^2,N^2-dimethylethane-1,2-diamine] | 2.82 | 2.74 | 1.45 |  |
| CN(C)CCNc1cc(F)cc(-c2cccc3[nH]c(-c4n[nH]c5ccc(-c6ccccn6)nc45)nc23)c1 [Compound 476, N^1-(3-Fluoro-5-(2-(5-(pyridin-2-yl)-1H-pyrazolo[4,3-b]pyridin-3-yl)-1H-benzo[d]imidazol-4-yl)phenyl)-N^2,N^2-dimethylethane-1,2diamine] | 1.49 | 1.44 | 1.08 |  |
